Experimental data reported in patent US20240217957A1, “HETEROCYCLIC COMPOUND AND USE THEREOF” (TAKEDA PHARMACEUTICAL COMPANY LIMITED, priority 2022, published 2024).

Target: T1, human OX2 receptor (Homo sapiens, UniProt O43614)
T1 construct: expressed in transfected cells
T1 sequence (O43614 1-444): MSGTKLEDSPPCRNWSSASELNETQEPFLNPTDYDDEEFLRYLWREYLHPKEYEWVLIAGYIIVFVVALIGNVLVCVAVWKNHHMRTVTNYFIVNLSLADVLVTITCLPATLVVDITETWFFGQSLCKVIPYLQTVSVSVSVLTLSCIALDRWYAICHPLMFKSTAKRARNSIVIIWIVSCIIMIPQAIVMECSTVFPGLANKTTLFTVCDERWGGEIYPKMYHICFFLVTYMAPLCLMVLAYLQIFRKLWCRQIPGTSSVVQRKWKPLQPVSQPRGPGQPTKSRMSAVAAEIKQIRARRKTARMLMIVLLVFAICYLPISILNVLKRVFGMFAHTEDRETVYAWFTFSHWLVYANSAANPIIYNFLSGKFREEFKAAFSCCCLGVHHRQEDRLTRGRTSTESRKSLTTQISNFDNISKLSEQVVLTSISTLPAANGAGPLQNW
Assay: Measurement of orexin type 2 receptor agonist activity (calcium fluorescence, Fluo-4 AM, FDSS)
Assay type: cell-based
Details: compound at 3 μM; CHO cells forcibly expressing human OX2 receptor; DMSO = 0%, 10 nM orexin A (human) = 100%
How it was run: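 Agonist response is expressed as % of the fluorescence change given by 10 nM human orexin A, with DMSO as 0%, read over 1 min 40 s on FDSS after compound addition. Cells: stable human OX2 (1-444) CHO-K1 clones, dye-loaded with Fluo-4 AM plus probenecid in HEPES-buffered HBSS with 0.1% BSA.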

| Compound | OX2R agonist activity (3 μM, %) |
| --- | --- |
| CS(=O)(=O)N[C@@H]1CN(C2=NOC(c3ncc(Cl)cc3-c3c(F)cccc3F)C2)C[C@@H]1F (stereo partly drawn) [Example 80, N-[(3R,4S)-1-{5-[5-chloro-3-(2,6-difluorophenyl)pyridin-2-yl]-4,5-dihydro-1,2-oxazol-3-yl}-4-fluoropyrrolidin-3-yl]methanesulfonamide] | 97% |
| Cc1cnc(C2(CF)CC(N3C[C@H](F)[C@H](NS(C)(=O)=O)C3)=NO2)c(-c2c(F)cccc2F)c1 (stereo partly drawn) [Example 86, N-[(3R,4S)-1-{5-[3-(2,6-difluorophenyl)-5-methylpyridin-2-yl]-5-(fluoromethyl)-4,5-dihydro-1,2-oxazol-3-yl}-4-fluoropyrrolidin-3-yl]methanesulfonamide] | 95% |
| CS(=O)(=O)N[C@H]1CCN(C2=NOC(CF)(c3ncc(F)cc3-c3c(F)cccc3F)C2)C1 (stereo partly drawn) [Example 87, N-[(3S)-1-{5-[3-(2,6-difluorophenyl)-5-fluoropyridin-2-yl]-5-(fluoromethyl)-4,5-dihydro-1,2-oxazol-3-yl}pyrrolidin-3-yl]methanesulfonamide] | 104% |
| CCS(=O)(=O)N[C@H]1CCN(C2=NOC(CF)(c3ncc(F)cc3-c3c(F)cccc3F)C2)C1 (stereo partly drawn) [Example 88, N-[(3S)-1-{5-[3-(2,6-difluorophenyl)-5-fluoropyridin-2-yl]-5-(fluoromethyl)-4,5-dihydro-1,2-oxazol-3-yl}pyrrolidin-3-yl]ethanesulfonamide] | 112% |
| O=S(=O)(N[C@H]1CCN(C2=NOC(CF)(c3ncc(F)cc3-c3c(F)cccc3F)C2)C1)C1(F)CC1 (stereo partly drawn) [Example 89, N-[(3S)-1-{5-[3-(2,6-difluorophenyl)-5-fluoropyridin-2-yl]-5-(fluoromethyl)-4,5-dihydro-1,2-oxazol-3-yl}pyrrolidin-3-yl]-1-fluorocyclopropane-1-sulfonamide] | 93% |
| Cc1cnc(C2(CF)CC(N3C[C@@H](NS(C)(=O)=O)C(F)(F)C3)=NO2)c(-c2c(F)cc(F)cc2F)c1 (stereo partly drawn) [Example 93, N-[(3R)-4,4-difluoro-1-{5-(fluoromethyl)-5-[5-methyl-3-(2,4,6-trifluorophenyl)pyridin-2-yl]-4,5-dihydro-1,2-oxazol-3-yl}pyrrolidin-3-yl]methanesulfonamide] | 99% |
| Cc1cnc(C2(C)CC(N3C[C@H](F)[C@H](NS(C)(=O)=O)C3)=NO2)c(-c2c(F)cccc2F)c1 (stereo partly drawn) [Example 96, N-[(3R,4S)-1-{5-[3-(2,6-difluorophenyl)-5-methylpyridin-2-yl]-5-methyl-4,5-dihydro-1,2-oxazol-3-yl}-4-fluoropyrrolidin-3-yl]methanesulfonamide] | 99% |
| O=S(=O)(N[C@@H]1CN(C2=NOC(c3ncc(Cl)cc3-c3c(F)cccc3F)C2)C[C@@H]1F)C1CC1 (stereo partly drawn) [Example 98, N-[(3R,4S)-1-{5-[5-chloro-3-(2,6-difluorophenyl)pyridin-2-yl]-4,5-dihydro-1,2-oxazol-3-yl}-4-fluoropyrrolidin-3-yl]cyclopropanesulfonamide] | 108% |
| Cc1cnc([C@@H]2CC(N3CC[C@H](NS(=O)(=O)C(C)F)C3)=NO2)c(-c2c(F)cccc2F)c1 (stereo partly drawn) [Example 99, N-[(3S)-1-{(5S)-5-[3-(2,6-difluorophenyl)-5-methylpyridin-2-yl]-4,5-dihydro-1,2-oxazol-3-yl}pyrrolidin-3-yl]-1-fluoroethane-1-sulfonamide] | 101% |
| O=S(=O)(CF)N[C@H]1CCN(C2=NOC(c3ncc(Cl)cc3-c3c(F)cccc3F)C2)C1 (stereo partly drawn) [Example 101, N-[(3S)-1-{5-[5-chloro-3-(2,6-difluorophenyl)pyridin-2-yl]-4,5-dihydro-1,2-oxazol-3-yl}pyrrolidin-3-yl]-1-fluoromethanesulfonamide] | 98% |
| O=S(=O)(CF)N[C@H]1CCN(C2=NOC(c3ncc(Br)cc3-c3c(F)cccc3F)C2)C1 (stereo partly drawn) [Example 102, N-[(3S)-1-{5-[5-bromo-3-(2,6-difluorophenyl)pyridin-2-yl]-4,5-dihydro-1,2-oxazol-3-yl}pyrrolidin-3-yl]-1-fluoromethanesulfonamide] | 95% |
| CS(=O)(=O)N[C@@H]1CN(C2=NOC(c3ncc(Cl)cc3-c3c(F)cccc3F)C2)C[C@@H]1F (stereo partly drawn) [Example 103, N-[(3R,4S)-1-{5-[5-chloro-3-(2,6-difluorophenyl)pyridin-2-yl]-4,5-dihydro-1,2-oxazol-3-yl}-4-fluoropyrrolidin-3-yl]methanesulfonamide] | 96% |
| Cc1cnc(C2(CF)CC(N3C[C@@H](NS(C)(=O)=O)C(F)(F)C3)=NO2)c(-c2c(F)cccc2F)n1 (stereo partly drawn) [Example 104, N-[(3R)-1-{5-[3-(2,6-difluorophenyl)-5-methylpyrazin-2-yl]-5-(fluoromethyl)-4,5-dihydro-1,2-oxazol-3-yl}-4,4-difluoropyrrolidin-3-yl]methanesulfonamide] | 102% |

Results, then the compound that gave them:

| OX2R agonist activity (3 μM, %) | Compound |
| --- | --- |
| 100% | Cc1cnc([C@@H]2CC(N3C[C@H](F)[C@H](NS(=O)(=O)N(C)C)C3)=NO2)c(-c2c(F)cccc2F)c1 [Example 79, N′-[(3R,4S)-1-{(5S)-5-[3-(2,6-difluorophenyl)-5-methylpyridin-2-yl]-4,5-dihydro-1,2-oxazol-3-yl}-4-fluoropyrrolidin-3-yl]-N,N-dimethylsulfuric diamide] |
| 100% | Cc1cnc([C@@H]2CC(N3C[C@H](F)[C@H](NS(=O)(=O)C(F)F)C3)=NO2)c(-c2c(F)cccc2F)c1 [Example 81, N-[(3R,4S)-1-{(5S)-5-[3-(2,6-difluorophenyl)-5-methylpyridin-2-yl]-4,5-dihydro-1,2-oxazol-3-yl}-4-fluoropyrrolidin-3-yl]-1,1-difluoromethanesulfonamide] |
| 98% | Cc1cnc([C@@H]2CC(N3C[C@H](F)[C@H](NS(=O)(=O)CF)C3)=NO2)c(-c2c(F)cc(F)cc2F)c1 [Example 82, 1-fluoro-N-[(3R,4S)-4-fluoro-1-{(5S)-5-[5-methyl-3-(2,4,6-trifluorophenyl)pyridin-2-yl]-4,5-dihydro-1,2-oxazol-3-yl}pyrrolidin-3-yl]methanesulfonamide] |
| 103% | Cc1cnc([C@@H]2CC(N3C[C@H](F)[C@H](NS(=O)(=O)N(C)C)C3)=NO2)c(-c2c(F)cc(F)cc2F)c1 [Example 83, N′-[(3R,4S)-4-fluoro-1-{(5S)-5-[5-methyl-3-(2,4,6-trifluorophenyl)pyridin-2-yl]-4,5-dihydro-1,2-oxazol-3-yl}pyrrolidin-3-yl]-N,N-dimethylsulfuric diamide] |
| 97% | CS(=O)(=O)N[C@@H]1CN(C2=NOC(c3ncc(Cl)cc3-c3c(F)cc(F)cc3F)C2)C[C@@H]1F (stereo partly drawn) [Example 84, N-[(3R,4S)-1-{5-[5-chloro-3-(2,4,6-trifluorophenyl)pyridin-2-yl]-4,5-dihydro-1,2-oxazol-3-yl}-4-fluoropyrrolidin-3-yl]methanesulfonamide] |
| 99% | CS(=O)(=O)N[C@@H]1CN(C2=NOC(c3ncc(Br)cc3-c3c(F)cc(F)cc3F)C2)C[C@@H]1F (stereo partly drawn) [Example 85, N-[(3R,4S)-1-{5-[5-bromo-3-(2,4,6-trifluorophenyl)pyridin-2-yl]-4,5-dihydro-1,2-oxazol-3-yl}-4-fluoropyrrolidin-3-yl]methanesulfonamide] |
| 98% | CS(=O)(=O)N[C@@H]1CN(C2=NOC(c3ncc(F)cc3-c3c(F)cc(F)cc3F)C2)C[C@@H]1F (stereo partly drawn) [Example 90, N-[(3R,4S)-4-fluoro-1-{5-[5-fluoro-3-(2,4,6-trifluorophenyl)pyridin-2-yl]-4,5-dihydro-1,2-oxazol-3-yl}pyrrolidin-3-yl]methanesulfonamide] |
| 98% | COCS(=O)(=O)N[C@@H]1CN(C2=NO[C@H](c3ncc(C)cc3-c3c(F)cc(F)cc3F)C2)C[C@@H]1F [Example 91, N-[(3R,4S)-4-fluoro-1-{(5S)-5-[5-methyl-3-(2,4,6-trifluorophenyl)pyridin-2-yl]-4,5-dihydro-1,2-oxazol-3-yl}pyrrolidin-3-yl]-1-methoxymethanesulfonamide] |
| 92% | CCS(=O)(=O)N[C@@H]1CN(C2=NO[C@H](c3ncc(C)cc3-c3c(F)cc(F)cc3F)C2)C[C@@H]1F [Example 92, N-[(3R,4S)-4-fluoro-1-{(5S)-5-[5-methyl-3-(2,4,6-trifluorophenyl)pyridin-2-yl]-4,5-dihydro-1,2-oxazol-3-yl}pyrrolidin-3-yl]ethanesulfonamide] |
| 103% | Cc1cnc([C@@H]2CC(N3C[C@H](F)[C@H](NS(=O)(=O)C4CC4)C3)=NO2)c(-c2c(F)cc(F)cc2F)c1 [Example 97, N-[(3R,4S)-4-fluoro-1-{(5S)-5-[5-methyl-3-(2,4,6-trifluorophenyl)pyridin-2-yl]-4,5-dihydro-1,2-oxazol-3-yl}pyrrolidin-3-yl]cyclopropanesulfonamide] |
| 99% | Cc1cnc([C@@H]2CC(N3CC[C@H](NS(=O)(=O)C(C)F)C3)=NO2)c(-c2c(F)cc(F)cc2F)c1 (stereo partly drawn) [Example 100, 1-fluoro-N-[(3S)-1-{(5S)-5-[5-methyl-3-(2,4,6-trifluorophenyl)pyridin-2-yl]-4,5-dihydro-1,2-oxazol-3-yl}pyrrolidin-3-yl]ethane-1-sulfonamide] |
